Test results as given in publication PMC5478686, “Direct Anandamide Activation of TRPV1 Produces Divergent Calcium and Current Responses” (Frontiers in Molecular Neuroscience, 2017).

Columns and labels:
[1] = tested on: T1, recombinant rat TRPV1 (TRPV1-GFP); assay: Whole-cell patch-clamp in HEK293 cells transfected with TRPV1-GFP; format: cell-based; conditions: for current reversal potential: current-voltage plots, n = 9 cells
T1 construct: expressed in transfected cells; host or cells: HEK293 cells (ATCC), transient transfection with lipofectamine 2000
Experimental: (§1) To generate TRPV1-GFP, the full-length rat TRPV1 coding region (NCBI accession number NM_031982.1) without stop codon was PCR amplified from nodose ganglion cDNA using the primers below and inserted into the HindIII and EcoRI sites of pEGFP-N1 (Clontech).
Clonal COS-7 cells (ATCC® Manassas, VA, USA) were plated on glass coverslips at a density of 250,000 cells per well of a 6-well tissue culture plate. HEK293 cells (ATCC® Manassas, VA, USA) were plated on glass coverslips at a density of 50,000 cells per well of a 12-well plate. COS-7 and HEK293 cells were maintained in DMEM (Invitrogen), 10% FCS (Atlanta Biologicals), 25 units/ml penicillin and 25 μg/ml streptomycin (Sigma). Approximately 24 h after plating, media was replaced with DMEM, 10% FCS without pen/strep and cells were transiently transfected overnight. COS-7 cells were transfected with 2 μg of TRPV1-GFP and 2.4 μl lipofectamine 2000 (Invitrogen) per well. HEK293 cells were transfected with 1 μg of TRPV1-GFP and 1.2 μl lipofectamine 2000 per well. COS-7 cells were used for calcium imaging and HEK293 cells were used for electrophysiological recordings 1–2 days following transfection.
Whole cell recordings were performed on dissociated nodose ganglion neurons or transfected HEK293 cells using an inverted Olympus IX50 microscope and on NTS neurons contained in horizontal brainstem slices using an upright Nikon FN1 microscope. For HEK293 cell experiments, TRPV1-GFP+ cells were identified visually using 488 nm light illuminations prior to patching. […]
Whole cell currents taken from isolated nodose ganglion cells or transfected HEK 293 cells were normalized to the membrane capacitance to control for variability in cell size. […] For brainstem slice recordings the digitized waveforms of synaptic events were analyzed using an event detection and analysis program (MiniAnalysis, Synaptosoft, Decatur, GA, USA) for all quantal synaptic currents and Clampfit 10 (Molecular Devices) for all ST-stimulated currents. All events >10 pA were counted for frequency values. […]

TRPV1 [2] = target: T2, TRPV1 (Rattus norvegicus, UniProt O35433); assay: Ratiometric Fura-2 calcium imaging in dissociated nodose ganglion (vagal afferent) neurons; format: cell-based; conditions: for effect on AEA-induced increase in cytosolic calcium: AEA 10 μM; for effect on CAP-induced increase in cytosolic calcium: CAP 100 nM
T2 construct: endogenous in cells; host or cells: dissociated nodose ganglion neurons from male Sprague Dawley rats (primary culture, used within 24 h)
T2 sequence (O35433 whole entry): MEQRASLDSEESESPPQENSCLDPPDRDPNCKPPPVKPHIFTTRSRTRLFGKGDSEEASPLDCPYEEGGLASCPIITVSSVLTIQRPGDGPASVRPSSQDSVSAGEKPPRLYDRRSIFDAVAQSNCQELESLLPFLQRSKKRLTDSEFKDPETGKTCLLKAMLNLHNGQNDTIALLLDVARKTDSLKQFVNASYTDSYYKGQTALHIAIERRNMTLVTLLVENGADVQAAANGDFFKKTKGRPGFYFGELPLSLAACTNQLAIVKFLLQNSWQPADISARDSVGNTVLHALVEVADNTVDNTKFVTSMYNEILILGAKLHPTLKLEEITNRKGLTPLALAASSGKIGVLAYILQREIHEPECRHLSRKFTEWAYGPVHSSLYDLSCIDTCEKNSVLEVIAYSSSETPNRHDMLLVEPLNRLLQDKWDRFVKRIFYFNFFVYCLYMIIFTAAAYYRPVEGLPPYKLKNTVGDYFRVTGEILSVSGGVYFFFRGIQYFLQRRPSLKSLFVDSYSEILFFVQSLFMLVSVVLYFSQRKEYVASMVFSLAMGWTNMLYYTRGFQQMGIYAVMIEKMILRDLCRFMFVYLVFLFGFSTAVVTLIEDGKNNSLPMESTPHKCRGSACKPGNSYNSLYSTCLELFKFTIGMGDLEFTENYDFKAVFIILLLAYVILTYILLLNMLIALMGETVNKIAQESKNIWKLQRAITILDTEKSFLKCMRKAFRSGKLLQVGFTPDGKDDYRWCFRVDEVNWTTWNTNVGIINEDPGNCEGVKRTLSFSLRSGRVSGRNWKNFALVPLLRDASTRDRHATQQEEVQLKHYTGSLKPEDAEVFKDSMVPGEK
Experimental: (§2) Nodose ganglia were isolated bilaterally from rats and mice under a deep plane of anesthesia (Ketamine, 25 mg/100 g; with Xylazine, 2.5 mg/100 g) using aseptic surgical conditions previously reported (Lancaster and Weinreich, [2001]; Simasko et al., [2002]). Following a midline incision in the neck, the musculature was retracted and blunt dissection techniques were used to dissociate the vagal trunk from the common carotid artery. High-magnification optics (10–100× dissecting scope; Leica Microsystems, Buffalo Grove, IL, USA) were utilized to visualize the nodose ganglia and facilitate complete removal. Once isolated, nodose ganglia were desheathed and digested in Ca^2+/Mg^2+ free Hank’s Balanced Salt Solution containing 1 mg/mL of both Dispase II (Hoffmann La Roche) and Collagenase Type 1A (Sigma Aldrich; 90 min at 37°C in 95% air/5% CO2). Neurons were dispersed by gentle trituration through silicanized pipettes, and then washed in Dulbecco’s Modified Eagle’s Medium (DMEM) supplemented with 10% fetal bovine serum (FBS) and 1% penicillin-streptomycin. Dispersed cells were plated onto poly-lysine coated coverslips and maintained in DMEM+10% FBS (37°C in 95% air/5% CO2). Measurements were made within 24 h of isolation.
Intracellular calcium measurements were made with the fluorescent Ca^2+ indicator Fura-2 AM (Molecular Probes, Eugene, OR, USA). Manipulations were made at room temperature in a physiological saline bath (in mM: 140 NaCl, 5 KCl, 2 CaCl2, 1 MgCl2, 6 glucose, 10 HEPES with pH adjusted to 7.4 with NaOH). High K^+ bath (HiK) had 55 mM KCl with an equimolar reduction of NaCl to 90 mM. Neurons on coverslips were loaded with 1 μM Fura-2-AM for 1 h followed by a 15 min wash for de-esterification. COS-7 cells on coverslips were loaded with 1 μM Fura-2-AM for 20 min followed by a 10 min was for de-esterification. Coverslips were mounted into a closed chamber and constantly perfused with physiological bath. Fluorescence was collected using a Nikon Eclipse Ti inverted microscope (Nikon Instruments Inc., Melville, NY, USA) with 40× oil immersion objective, and an Andor Zyla sCMOS digital camera (Andor, South Windsor, CT, USA). For COS-7 cell experiments, TRPV1-GFP+ cells were identified by imaging using an EGFP filter cube (Nikon) prior to Fura-2 imaging. Cells containing Fura-2 were alternatively excited with 340 nm and 380 nm light and fluorescence monitored at 510 nm. Data points were collected with MetaFluor software at 6 s time points. Ratios of fluorescence intensity were converted to Ca^2+ concentrations with a standard curve. Peak calcium responses were quantified, analyzed and compared statistically.
For each experiment, data were collected from three to four nodose ganglion cell cultures or plating of the clonal cells (COS-7). When possible, protocols were designed to be within subject and analyzed using repeated measures ANOVA followed by post hoc comparisons against control. Otherwise unpaired T-tests were used to compare between groups. Parameters of dose-response relationships (EC50, slope, maximum) were determined by sigmoid fit of the data. For antagonist studies (ruthenium red (RR), etc.) all neurons received each treatment and were compared using within subject t-tests. Data are expressed as the average ± SEM. Statistical analysis was performed using SigmaStat software (Systat Software Inc., San Jose, CA, USA).

TRPV1 [3] = target: T2, TRPV1; assay: Whole-cell patch-clamp current recordings in dissociated nodose ganglion neurons; format: cell-based
Experimental: as §2
Liquid junction potentials were not corrected.

second-order NTS neurons = assay: Spontaneous glutamate release (sEPSCs) onto second-order NTS neurons in horizontal brainstem slices; format: cell-based, rat
[4] = tested on: recombinant rat TRPV1 (TRPV1-GFP); assay: Fura-2 calcium imaging in COS-7 cells transfected with TRPV1-GFP; format: cell-based; conditions: COS-7 TRPV1-GFP; AEA n = 453 cells, CAP n = 492 cells
Experimental: as §1
Clonal COS-7 cells (ATCC® Manassas, VA, USA) were plated on glass coverslips at a density of 250,000 cells per well of a 6-well tissue culture plate. HEK293 cells (ATCC® Manassas, VA, USA) were plated on glass coverslips at a density of 50,000 cells per well of a 12-well plate. COS-7 and HEK293 cells were maintained in DMEM (Invitrogen), 10% FCS (Atlanta Biologicals), 25 units/ml penicillin and 25 μg/ml streptomycin (Sigma). […]
(§3) Intracellular calcium measurements were made with the fluorescent Ca^2+ indicator Fura-2 AM (Molecular Probes, Eugene, OR, USA). […] Fluorescence was collected using a Nikon Eclipse Ti inverted microscope (Nikon Instruments Inc., Melville, NY, USA) with 40× oil immersion objective, and an Andor Zyla sCMOS digital camera (Andor, South Windsor, CT, USA). […] Cells containing Fura-2 were alternatively excited with 340 nm and 380 nm light and fluorescence monitored at 510 nm. […] Ratios of fluorescence intensity were converted to Ca^2+ concentrations with a standard curve. Peak calcium responses were quantified, analyzed and compared statistically.

[5] = tested on: vagal afferent neurons taken from TRPV1 KO mice; assay: Fura-2 calcium imaging in vagal afferent neurons from TRPV1 KO mice; format: cell-based, mouse; conditions: any concentration tested, n = 15
Experimental: Male Sprague Dawley rats (120–250 g, Simonsen Laboratories) and male TRPV1 knockout mice (TRPV−/−) (20–30 g) (B6.129X1-Trpv1^tm1Jul/J, Jackson Laboratories) were used under procedures approved by the IACUC at Washington State University. Animals were housed under 12 h light/12 h dark conditions and fed standard pellet chow ad libitum. This study was carried out in accordance with the recommendations of the Guide for the Care and Use of Laboratory Animals, as drafted, updated and published by National Research Council. […]
as §3

[6] = CAP 1 μM bath application, n = 13

CCCCC/C=C\C/C=C\C/C=C\C/C=C\CCCC(=O)NCCO [AEA, anandamide]
current reversal potential [1]: 5 mV
current change, smaller than CAP ([1]; physiological bath, Vm = −60 mV): ~ 52%
EC50 (TRPV1 [2]; cultured vagal afferent neurons, Fura-2, sigmoid fit, AM251 present for AEA, read-out: EC50 for Calcium (peak cytosolic calcium)): 1.95 ± 0.36 µM
calcium response to 1st AEA exposure (time matched control) (TRPV1 [2]; repeated AEA, 1st response, N = 12): 113 ± 26
calcium response to 2nd AEA exposure (time matched control) (TRPV1 [2]; repeated AEA, 2nd response, N = 12, P = 0.002 vs 1st): 43 ± 13
EC50 (TRPV1 [3]): 9.8 ± 1.07 µM
effect of addition of extracellular bath calcium on initial inward current (TRPV1 [3]; AEA applied in calcium free bath, then calcium containing bath, n = 8): significantly reduced
inward current following removal of bath calcium vs standard bath (TRPV1 [3]; saturating AEA 30 μM, bath calcium 2 mM vs calcium free, n = 6): significantly larger
change of any sEPSC parameter (frequency, amplitude, decay-time constant) (second-order NTS neurons; AEA 30 μM, n = 16): failed to produce a significant change
peak calcium response, smaller compared to CAP [4]: ~ 14%
cytosolic calcium increase in TRPV1 KO neurons [5]: failed to produce a calcium increase

COc1cc(CNC(=O)CCCC/C=C/C(C)C)ccc1O [CAP, capsaicin]
current reversal potential [1]: 5 mV
effect of removal of bath calcium on average amplitude of induced current (TRPV1 [3]; saturating CAP 10 μM, bath calcium 2 mM vs calcium free, n = 8): did not change
change of sEPSC event amplitude or decay kinetics (second-order NTS neurons; [6]): no significant changes
change of spontaneous glutamate release (sEPSC frequency) (second-order NTS neurons; [6]): dramatic increase

N.N.N.N.N.N.N.N.N.N.N.N.N.N.[Cl-].[Cl-].[Cl-].[Cl-].[Cl-].[Cl-].[O-2].[O-2].[Ru+3].[Ru+3].[Ru+4] [RR, ruthenium red]
effect on AEA-induced increase in cytosolic calcium (TRPV1 [2]; RR 1 μM pretreatment): eliminated
effect on CAP-induced increase in cytosolic calcium (TRPV1 [2]; RR 1 μM pretreatment): eliminated

COc1cccc(NC(=O)/C=C/c2ccc(Cl)cc2)c1 [SB366791]
effect on AEA-induced increase in cytosolic calcium (TRPV1 [2]; SB366791 10 μM pretreatment): eliminated
effect on CAP-induced increase in cytosolic calcium (TRPV1 [2]; SB366791 10 μM pretreatment): eliminated
